In patent US20050014280A1, “In vitro method for determining drug permeability using immobilized artificial membrane chromatography” (priority 2003, published 2005):
Where two headings read alike, the source gives them in different places.

Key:
[1] = Caco-2 cell permeability assay (published Pm values); assay type: in vitro ADME; conditions: human
Method: Drug permeability assays using Caco-2 cells are currently widely used. Caco-2 cells are human colon adenocarcinoma cells that differentiate in culture to resemble intestinal epithelial cells.
The inventors used 21 reference compounds having a single positive charge at the pH at which the chromatography was performed, each having a published known permeability value, Pm, as determined by a Caco-2 cell assay by the various methods set out in references 1-7, below. The conditions used to determine the Caco-2 Pm values were generally similar in the cited references, although certain conditions varied between assays. Generally, the assays were performed at pH 7.4, with the exception of procaine and sumatriptan, for which the pH was 5.5 and 6.5, respectively. Therefore, for the experiments set out below, the pH of the mobile phase was 7.4 for all compounds except procaine (pH 5.5) and sumatriptan (6.5).

Caco-2 cells = conditions: cited from earlier work
[2] = Immobilized artificial membrane (IAM) HPLC capacity factor; assay type: physicochemical; conditions: 37° C.; for k′IAM (capacity factor): 1.0 ml/min, from average of 3 runs
Method: Sample Preparation: Between 3 and 10 mg of each sample was dissolved in a solution of 10% methanol, 90% water in preparation for injection onto the column.
HPLC Conditions: A Regis IAM.PC.DD2 column (30 mm×4.6 mm, 12 μm) was used, run at 37° C. at a flow rate of 1.0 ml/min. […] Elution of reference compounds was detected by ultraviolet absorbance at 210 nm.
Calculation of k′: Sodium nitrate was injected onto the column and the elution time was measured in order to determine the time for the void volume, t0, to pass through the column. Each reference compound was then injected onto the column and retention time, tR was recorded by detecting elution by measuring UV absorbance at 210 nm. The capacity factor, k′, was calculated by determining the adjusted retention time and dividing by the time for void volume elution, according to the formula k′=(tR−t0)/t0.
Each reference compound was tested three times and an average retention time was used.

[3] = mobile phase 85% 0.05 M ammonium phosphate pH 7.4 / 15% acetonitrile
[4] = mobile phase buffer pH 7.4 / 15% acetonitrile
[5] = Caco 2 donor pH 7.4, log of Pm in 10^−6 cm/s, read-out: Pm (converted)
[6] = mobile phase buffer pH 5.5 / 15% acetonitrile
[7] = mobile phase buffer pH 6.5 / 15% acetonitrile

SMILES | k′IAM (capacity factor) [2, 3] | logk′IAM [2, 4] | Pm (Caco-2 cells; Caco 2 donor pH 7.4) | Pm of Caco-2 Assay (Caco-2 cells; published Caco-2 assay, pH 7.4) | also measured
CC(C)NCC(O)COc1cccc2ccccc12 (stereo not shown) [Propranolol] | 31.148 | 1.493 | 32.5 10^−6 cm/s | – | Papp ([1]; Caco-2, pH 7.4): 32.5 ×10⁻⁶ cm/s; Pm of Caco-2 Assay (Caco-2 cells; Caco-2, pH 7.4): 1.94 +/− 10^−6 cm/s
CCN(CC)CCOC(=O)c1ccc(N)cc1 [Procaine] | – | – | – | – | Papp ([1]; Caco 2 donor pH 5.5, log of Pm in 10^−6 cm/s, read-out: Pm (converted)): 1.94 ×10⁻⁶ cm/s; Pm (Caco-2 cells; Caco 2 donor pH 5.5): 1.94 10^−6 cm/s; Pm of Caco-2 Assay (Caco-2 cells; published Caco-2 assay, pH 5.5): 1.94 +/− 10^−6 cm/s; logk′IAM [2, 6]: −0.368; k′IAM (capacity factor) [2, 6]: 0.428
CN(C)CCCN1c2ccccc2CCc2ccccc21 [Imipramine] | 91.053 | 1.959 | – | – | –
C=CCc1ccccc1OCC(O)CNC(C)C (stereo not shown) [Alprenolol] | 19.190 | 1.283 | 25.3 10^−6 cm/s | 25.3 +/− 10^−6 cm/s | Papp [1, 5]: 25.3 ×10⁻⁶ cm/s
CC(C)NCC(O)COc1cccc2[nH]ccc12 (stereo not shown) [Pindolol] | 4.712 | 0.673 | 16.7 10^−6 cm/s | 16.7 +/− 10^−6 cm/s | Papp ([1]; Caco-2, pH 7.4): 16.7 ×10⁻⁶ cm/s
CC(CCc1ccccc1)NCC(O)c1ccc(O)c(C(N)=O)c1 (stereo not shown) [Labetalol] | 12.940 | 1.112 | – | – | –
CNS(=O)(=O)Cc1ccc2[nH]cc(CCN(C)C)c2c1 [Sumatriptan] | – | – | – | – | Papp ([1]; Caco 2 donor pH 6.5, log of Pm in 10^−6 cm/s, read-out: Pm (converted)): 3 ×10⁻⁶ cm/s; Pm (Caco-2 cells; Caco 2 donor pH 6.5): 3 10^−6 cm/s; Pm of Caco-2 Assay (Caco-2 cells; published Caco-2 assay, pH 6.5): 3 10^−6 cm/s; logk′IAM [2, 7]: −0.077; k′IAM (capacity factor) [2, 7]: 0.837
Clc1cccc(Cl)c1N=C1NCCN1 [Clonidine] | 3.841 | 0.584 | 21.8 10^−6 cm/s | 21.8 +/− 10^−6 cm/s | Papp ([1]; Caco-2, pH 7.4): 21.8 ×10⁻⁶ cm/s
COc1ccc([C@@H]2Sc3ccccc3N(CCN(C)C)C(=O)[C@@H]2OC(C)=O)cc1 [Diltiazem] | 24.145 | 1.383 | – | – | –
CC(C)(C)NCC(O)COc1cccc2c1CC(O)C(O)C2 (stereo not shown) [Nadolol] | 1.717 | 0.235 | 3.88 10^−6 cm/s | 3.88 +/− 10^−6 cm/s | Papp [1, 5]: 3.88 ×10⁻⁶ cm/s
COCCc1ccc(OCC(O)CNC(C)C)cc1 (stereo not shown) [Metoprolol] | 3.600 | 0.556 | 23.7 10^−6 cm/s | 23.7 +/− 10^−6 cm/s | Papp ([1]; Caco-2, pH 7.4): 23.7 ×10⁻⁶ cm/s

Now from value to compound, other results behind:

k′IAM (capacity factor) [2, 3] | logk′IAM [2, 4] | SMILES | Pm (Caco-2 cells; Caco 2 donor pH 7.4) | Pm of Caco-2 Assay (Caco-2 cells; published Caco-2 assay, pH 7.4) | also measured
1.276 | 0.106 | CC(C)(C)NCC(O)c1cc(O)cc(O)c1 (stereo not shown) [Terbutaline] | 1.4 10^−6 cm/s | 1.4 +/− 10^−6 cm/s | Papp [1, 5]: 1.4 ×10⁻⁶ cm/s
1.804 | 0.256 | CCN1CCCC1CNC(=O)c1cc(S(N)(=O)=O)ccc1OC (stereo not shown) [Sulpiride] | – | – | –
1.232 | 0.091 | CN/C(=C\[N+](=O)[O-])NCCSCc1ccc(CN(C)C)o1 [Ranitidine] | 0.49 10^−6 cm/s | 0.49 +/− 10^−6 cm/s | Papp [1, 5]: 0.49 ×10⁻⁶ cm/s
